In patent US5112382A, “Halopropargyl compounds, compositions, uses and processes of preparation” (Rohm and Haas Company, priority 1990, dated 1992):
≈ marks a conversion by molar mass, not a printed value. Where two headings read alike, the source gives them in different places.

How the values were obtained:
Pseudomonas fluorescens = test: MIC, broth two-fold serial dilution test, Psfl; type: cell-based; settings: read-out: Minimum Inhibitory Concentration (MIC)
Protocol: (§1) A minimum inhibitory concentration (MIC) value is obtained using a broth, two-fold serial dilution test performed as follows: […] A volume of the stock solution is dispensed into culture media to give an initial starting test concentration of 500 ppm compound. The test is carried out by adding and equal volume of broth to each vessel in the dilution series, except for the first vessel. The first vessel contains twice the volume of broth plus the initial concentration of test compound. One half of the broth from the first vessel is transferred to the second vessel. After being mixed, one half the resulting volume is removed from the second vessel and transferred to the third vessel. The entire cycle is repeated sufficiently to give a series of concentrations amounting to 500, 250, 125, 63, 31, 16, 8, and 4 ppm (or 100, 50, 25, 12.5, 6.2, 3.1, 1.6, and 0.8), respectively. Each vessel is then inoculated with a cell suspension of the appropriate test organism. Bacteria are grown in both and fungi on agar slats for a time and at a temperature appropriate to the species being tested. At the end of the growth period, the broth is vortexed to disperse the cells. In the case of fungi, the pores are harvested by pipetting water onto the slant and dislodging the spores with a sterile loop. The cell/spore suspension is standardized by controlling incubation time, temperature, and the volume of the diluent. The suspension is then used to inoculate the vessels containing the broth compound. The vessels are then incubated at the appropriate temperature. After the incubation, the vessels are examined for growth/no growth. The minimum inhibitory concentration (MIC) is defined as the lowest concentration of compound that results in complete inhibition of growth of the test organism.

Pseudomonas aerugenosa = test: MIC, broth two-fold serial dilution test, Psae; type: cell-based; settings: read-out: Minimum Inhibitory Concentration (MIC)
Protocol: as §1

Escherichia coli = test: MIC, broth two-fold serial dilution test, Ecol; type: cell-based; settings: read-out: Minimum Inhibitory Concentration (MIC)
Protocol: as §1

Staphylococcus aureus = test: MIC, broth two-fold serial dilution test, Saur; type: cell-based; settings: read-out: Minimum Inhibitory Concentration (MIC)
Protocol: as §1

Aspergillus niger = test: MIC, broth two-fold serial dilution test, Anig; type: cell-based; settings: read-out: Minimum Inhibitory Concentration (MIC)
Protocol: as §1

Aureobasidium pullulans = test: MIC, broth two-fold serial dilution test, Apul; type: cell-based; settings: read-out: Minimum Inhibitory Concentration (MIC)
Protocol: as §1

Cochliobolus sativus = test: In-vitro plant fungicide test, HEL; type: cell-based; settings: Bipolaris sorokiniana, read-out: % Control; for inhibition of growth at 25 ppm: rate 25 PPM; for inhibition of growth at 50 ppm: rate 50 PPM
Phytophthora capsici = test: In-vitro plant fungicide test, PHY; type: cell-based; settings: read-out: % Control; for inhibition of growth at 25 ppm: rate 25 PPM; for inhibition of growth at 50 ppm: rate 50 PPM
Piricularia oryzae [1] = test: microbe, parasite or virus in culture; type: cell-based; settings: read-out: % Control
Pythium ultimum = test: In-vitro plant fungicide test, PYU; type: cell-based; settings: Globisporangium ultimum, read-out: % Control; for inhibition of growth at 25 ppm: rate 25 PPM; for inhibition of growth at 50 ppm: rate 50 PPM
Rhizoctonia solani = test: In-vitro plant fungicide test, RHI; type: cell-based; settings: read-out: % Control; for inhibition of growth at 25 ppm: rate 25 PPM; for inhibition of growth at 50 ppm: rate 50 PPM
Xanthomonas campestris = test: In-vitro plant fungicide test, XAN; type: cell-based; settings: read-out: % Control; for inhibition of growth at 25 ppm: rate 25 PPM
Botrytis cinerea = test: In-vitro plant fungicide test, BOC; settings: read-out: % Control
Fusarium roseum = test: microbe, parasite or virus in culture; settings: Fusarium sambucinum, read-out: % Control
Phytophthora infestans = test: whole plant or invertebrate; type: in vivo; settings: in Solanum lycopersicum, 96 h, read-out: % Control
[2] = test system: Puccinia recondita (f. sp. tritici Races PKB and PLD); test: whole plant or invertebrate; type: in vivo; settings: 240 h
[3] = test system: Erysiphe graminis (f. sp. tritici); test: whole plant or invertebrate; type: in vivo; settings: Blumeria graminis
Septoria nodorum = test: In-vitro plant fungicide test, SEP; type: cell-based; settings: Parastagonospora nodorum, read-out: % Control; for inhibition of growth at 50 ppm: rate 50 PPM
[4] = test system: Pseudoperonospora cubensis; test: whole plant or invertebrate; type: in vivo; settings: in Cucumis sativus, 168 h
Piricularia oryzae [5] = test: whole plant or invertebrate; type: in vivo; settings: Pyricularia oryzae, 192 h, read-out: % Control
[6] = test system: Septoria glume blotch of wheat; test: whole plant or invertebrate; type: in vivo; settings: Triticum aestivum

Row | SMILES | MIC (Pseudomonas fluorescens) [µg/mL] | MIC (Pseudomonas aerugenosa) [µg/mL] | MIC (Escherichia coli) [µg/mL] | MIC (Staphylococcus aureus) [µg/mL] | MIC (Aspergillus niger) [µg/mL] | MIC (Aureobasidium pullulans) [µg/mL] | inhibition of growth at 25 ppm (Cochliobolus sativus) [%] | inhibition of growth at 25 ppm (Phytophthora capsici) [%] | inhibition of growth at 25 ppm (Piricularia oryzae [1]) [%] | inhibition of growth at 25 ppm (Pythium ultimum) [%] | inhibition of growth at 25 ppm (Rhizoctonia solani) [%] | inhibition of growth at 25 ppm (Xanthomonas campestris; XAN) [%] | inhibition of growth at 25 ppm (Botrytis cinerea) [%] | inhibition of growth at 25 ppm (Fusarium roseum) [%] | inhibition of growth at 50 ppm (Cochliobolus sativus) [%] | inhibition of growth at 50 ppm (Piricularia oryzae [1]) [%] | pest or weed control at 200 ppm [4] [%] | pest or weed control at 200 ppm (Piricularia oryzae [5]) [%] | pest or weed control at 200 ppm (Phytophthora infestans) [%] | pest or weed control at 200 ppm [3] [%] | also measured
1 | COC(=O)N(CC#CBr)N=Cc1ccc(Cl)cc1 [Compound 1, N'-Methoxycarbonyl-N'-3-bromopropargyl 4-chlorobenzaldehyde hydrazone] | > 500 | 250 (≈ 759 µM) | > 500 | > 500 | > 500 | 63 (≈ 191 µM) | 0 | 0 | 0 | 0 | 0 | 0 | 0 | 0 | – | – | – | – | – | – | –
2 | O=CN(CC#CBr)N=Cc1ccc(Cl)cc1 [Compound 2, N'-Formyl-N'-3-bromopropargyl 4-chlorobenzaldehyde hydrazone] | > 500 | 250 (≈ 835 µM) | > 500 | > 500 | > 500 | 63 (≈ 210 µM) | 0 | 75 | 50 | 0 | 0 | 0 | 0 | 0 | – | – | – | – | – | – | pest or weed control at 600 ppm (Phytophthora infestans): 50%; pest or weed control at 600 ppm [2]: 0%; pest or weed control at 600 ppm [3]: 0%
3 | COC(=O)N(CC#CI)N=Cc1ccccc1 [Compound 3, N'-Methoxycarbonyl-N'-3-iodopropargyl benzaldehyde hyrazone] | > 500 | 250 (≈ 731 µM) | > 500 | 125 (≈ 365 µM) | < 4 | < 4 | 0 | 75 | 0 | 75 | 100 | 0 | 0 | 75 | 0 | 95 | 99 | 90 | 80 | 50 | inhibition of growth at 50 ppm (Phytophthora capsici): 100%; inhibition of growth at 50 ppm (Pythium ultimum): 100%; inhibition of growth at 50 ppm (Rhizoctonia solani): 100%; inhibition of growth at 50 ppm (Septoria nodorum): 75%; inhibition of growth at 50 ppm (Xanthomonas campestris; XAN, rate 50 PPM): 0%; pest or weed control at 200 ppm [2]: 50%; inhibition of growth at 50 ppm (Botrytis cinerea): 0%; inhibition of growth at 50 ppm (Fusarium roseum): 100%
4 | COC(=O)N(CC#CI)N=Cc1ccc(C)cc1 [Compound 4, N'-Methoxycarbonyl-N'-3-iodopropargyl 4-methylbenzaldehyde hydrazone] | 125 (≈ 351 µM) | 125 (≈ 351 µM) | 250 (≈ 702 µM) | 16 (≈ 44.9 µM) | < 4 | 8 (≈ 22.5 µM) | – | – | – | – | – | – | – | – | – | – | 95 | 90 | 80 | 0 | pest or weed control at 200 ppm [6]: 50%; pest or weed control at 200 ppm [2]: 50%
5 | COC(=O)N(CC#CI)N=Cc1ccc(Cl)cc1 [Compound 5, N'-Methoxycarbonyl-N'-3-iodopropargyl 4-chlorobenzaldehyde hydrazone] | 125 (≈ 332 µM) | 16 (≈ 42.5 µM) | 125 (≈ 332 µM) | 8 (≈ 21.2 µM) | < 4 | < 4 | 100 | 50 | 100 | 50 | 75 | 0 | 0 | 95 | – | – | 99 | 95 | 90 | 0 | pest or weed control at 200 ppm [6]: 0%; pest or weed control at 200 ppm [2]: 80%
6 | O=C(c1ccccc1)N(CC#CI)N=Cc1ccccc1 [Compound 6, N'-Benzoyl-N'-3-iodopropargyl benzaldehyde hydrazone] | 50 (≈ 129 µM) | 25 (≈ 64.4 µM) | 50 (≈ 129 µM) | 50 (≈ 129 µM) | 6 (≈ 15.5 µM) | 3 (≈ 7.73 µM) | 0 | 100 | 100 | 100 | 0 | 0 | 0 | 0 | – | – | – | – | – | – | inhibition of growth at 25 ppm (Septoria nodorum; rate 25 PPM): 100%
7 | COC(=O)N(CC#CI)N=Cc1ccc([N+](=O)[O-])o1 [Compound 8, N'-Methoxycarbonyl-N'-3-iodopropargyl 5-nitro-2-furancarboxaldehyde hydrazone] | 250 (≈ 663 µM) | 125 (≈ 331 µM) | 63 (≈ 167 µM) | < 4 | < 4 | < 4 | – | – | – | – | – | – | – | – | 100 | 100 | 0 | 90 | 0 | 0 | inhibition of growth at 50 ppm (Pythium ultimum): 100%; inhibition of growth at 50 ppm (Rhizoctonia solani): 100%; inhibition of growth at 50 ppm (Septoria nodorum): 100%; inhibition of growth at 50 ppm (Xanthomonas campestris): 0%; pest or weed control at 200 ppm [6]: 0%; pest or weed control at 200 ppm [2]: 0%; inhibition of growth at 50 ppm (Botrytis cinerea): 0%; inhibition of growth at 50 ppm (Fusarium roseum): 100%
8 | COC(=O)N(CC#CI)N=Cc1ccc(C#N)cc1 [Compound 9, N'-Methoxycarbonyl-N'-3-iodopropargyl 4-cyanobenzaldehyde hydrazone] | > 500 | > 500 | > 500 | > 500 | > 250 | – | – | – | – | – | – | – | – | – | 100 | 100 | 85 | 0 | 0 | 0 | inhibition of growth at 50 ppm (Phytophthora capsici): 95%; inhibition of growth at 50 ppm (Pythium ultimum): 100%; inhibition of growth at 50 ppm (Rhizoctonia solani): 100%; inhibition of growth at 50 ppm (Septoria nodorum): 100%; inhibition of growth at 50 ppm (Xanthomonas campestris; XAN, rate 50 PPM): 0%; pest or weed control at 200 ppm [6]: 0%; pest or weed control at 200 ppm [2]: 0%; inhibition of growth at 50 ppm (Botrytis cinerea): 50%; inhibition of growth at 50 ppm (Fusarium roseum): 100%
9 | COC(=O)N(CC#CI)N=Cc1ccc(Cl)c(Cl)c1 [Compound 11, N'-Methoxycarbonyl-N'-3-iodopropargyl 3,4-dichlorobenzaldehyde hydrazone] | > 500 | > 500 | > 500 | 8 (≈ 19.5 µM) | < 4 | < 4 | – | – | – | – | – | – | – | – | 100 | 100 | 95 | 90 | 80 | 0 | inhibition of growth at 50 ppm (Phytophthora capsici): 90%; inhibition of growth at 50 ppm (Pythium ultimum): 0%; inhibition of growth at 50 ppm (Rhizoctonia solani): 100%; inhibition of growth at 50 ppm (Septoria nodorum): 90%; inhibition of growth at 50 ppm (Xanthomonas campestris; XAN, rate 50 PPM): 0%; pest or weed control at 200 ppm [6]: 0%; inhibition of growth at 50 ppm (Botrytis cinerea): 50%; inhibition of growth at 50 ppm (Fusarium roseum): 100%
10 | O=C(c1ccccc1)N(CC#CI)N=Cc1cccc([N+](=O)[O-])c1 [Compound 12, N'-Benzoyl-N'-3-iodopropargyl 3-nitrobenzaldehyde hydrazone] | > 100 | > 100 | > 100 | > 100 | > 100 | 100 (≈ 231 µM) | – | – | – | – | – | – | – | – | 0 | 100 | – | – | – | – | inhibition of growth at 50 ppm (Phytophthora capsici): 0%; inhibition of growth at 50 ppm (Pythium ultimum): 0%; inhibition of growth at 50 ppm (Rhizoctonia solani): 95%; inhibition of growth at 50 ppm (Septoria nodorum): 0%; inhibition of growth at 50 ppm (Xanthomonas campestris; XAN, rate 50 PPM): 0%; inhibition of growth at 50 ppm (Botrytis cinerea): 0%; inhibition of growth at 50 ppm (Fusarium roseum): 0%
